Data from patent publication US10844077B2, “Thiazolyl-containing compounds for treating proliferative diseases” (Dana-Farber Cancer Institute, Inc., priority 2014, dated 2020).
“And” between values parts separate entries of the source, which are not always exact repeats. Equal entries are not always repeated.

Legend:
Assay in all cases: KINATIV assay
Assay type in all cases: cell-based
AMPKa1, AMPKa2 = settings: 1 μM, 90 minutes, BCWM.1 cells
Procedure: (§1) The cells were harvested and lysed. The lysates were directly labeled with an ATP-biotin probe. Bound kinases were identified and quantitated by ACTIVX as described in Patricelli et al., Biochemistry, 2007, 46(2): 350-358. The compounds were tested in duplicates against duplicate or quadruplicate control samples.

AurA, AurB, AurC = settings: 1 μM, 90 minutes, BCWM.1 cells
Procedure: as §1

AurB = AurB (Homo sapiens (Human), UniProt Q96GD4); settings: 1 μM, 90 minutes, BCWM.1 cells
Procedure: as §1

BLK = BLK (Homo sapiens (Human), UniProt P51451); settings: 1 μM, 90 minutes, BCWM.1 cells
Procedure: as §1

CASK = CASK (Homo sapiens (Human), UniProt O14936); settings: 1 μM, 90 minutes, BCWM.1 cells
Procedure: as §1

CDK4 = CDK4 (Homo sapiens (Human), UniProt P11802); settings: 1 μM, 90 minutes, BCWM.1 cells
Procedure: as §1

CLK3 = CLK3 (Homo sapiens (Human), UniProt P49761); settings: 1 μM, 90 minutes, BCWM.1 cells
CLK3, sequence (P49761 whole entry): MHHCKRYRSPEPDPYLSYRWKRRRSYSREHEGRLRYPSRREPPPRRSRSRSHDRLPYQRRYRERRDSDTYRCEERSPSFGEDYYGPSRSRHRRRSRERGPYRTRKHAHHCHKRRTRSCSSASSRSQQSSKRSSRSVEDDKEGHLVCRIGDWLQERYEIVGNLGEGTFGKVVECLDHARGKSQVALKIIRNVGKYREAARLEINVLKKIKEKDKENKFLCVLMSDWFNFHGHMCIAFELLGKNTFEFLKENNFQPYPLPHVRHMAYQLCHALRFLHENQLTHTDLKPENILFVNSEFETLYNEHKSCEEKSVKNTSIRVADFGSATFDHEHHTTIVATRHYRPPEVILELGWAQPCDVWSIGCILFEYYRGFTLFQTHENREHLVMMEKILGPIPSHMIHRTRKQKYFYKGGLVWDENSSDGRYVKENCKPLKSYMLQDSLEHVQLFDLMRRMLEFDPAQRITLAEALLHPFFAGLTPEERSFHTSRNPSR
Procedure: as §1

CaMK1d = CaMK1d (Homo sapiens (Human), UniProt Q8IU85); settings: 1 μM, 90 minutes, BCWM.1 cells
CaMK1d, sequence (Q8IU85 whole entry): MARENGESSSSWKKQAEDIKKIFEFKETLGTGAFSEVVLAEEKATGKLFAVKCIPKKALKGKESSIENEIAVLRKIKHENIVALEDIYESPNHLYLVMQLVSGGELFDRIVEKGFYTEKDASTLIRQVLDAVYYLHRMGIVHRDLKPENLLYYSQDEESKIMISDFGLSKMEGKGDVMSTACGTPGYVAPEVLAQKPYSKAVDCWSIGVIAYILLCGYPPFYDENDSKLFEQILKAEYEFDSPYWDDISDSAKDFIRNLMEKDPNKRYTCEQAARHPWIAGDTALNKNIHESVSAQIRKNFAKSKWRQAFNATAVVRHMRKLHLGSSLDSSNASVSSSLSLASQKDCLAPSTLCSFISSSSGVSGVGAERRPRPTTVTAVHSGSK
Procedure: as §1

[1] = system: CaMK2a, CaMK2b, CaMK2d, CaMK2g; settings: 1 μM, 90 minutes, BCWM.1 cells
Procedure: as §1

CaMK2d = CaMK2d (Homo sapiens (Human), UniProt Q13557); settings: 1 μM, 90 minutes, BCWM.1 cells
Procedure: as §1

CaMK2g = CaMK2g (Homo sapiens (Human), UniProt Q13555); settings: 1 μM, 90 minutes, BCWM.1 cells
Procedure: as §1

Erk2 = Erk2 (Homo sapiens (Human), UniProt P28482); settings: 1 μM, 90 minutes, BCWM.1 cells
Procedure: as §1

FES = FES (Homo sapiens (Human), UniProt P07332); settings: 1 μM, 90 minutes, BCWM.1 cells
Procedure: as §1

FRK = FRK (Homo sapiens (Human), UniProt P42685); settings: 1 μM, 90 minutes, BCWM.1 cells
Procedure: as §1

GSK3B = GSK3B (Homo sapiens (Human), UniProt P49841); settings: GSK3B; 1 μM, 90 minutes, BCWM.1 cells
Procedure: as §1

HPK1 = HPK1 (Homo sapiens (Human), UniProt Q92918); settings: 1 μM, 90 minutes, BCWM.1 cells
HPK1, sequence (Q92918 whole entry): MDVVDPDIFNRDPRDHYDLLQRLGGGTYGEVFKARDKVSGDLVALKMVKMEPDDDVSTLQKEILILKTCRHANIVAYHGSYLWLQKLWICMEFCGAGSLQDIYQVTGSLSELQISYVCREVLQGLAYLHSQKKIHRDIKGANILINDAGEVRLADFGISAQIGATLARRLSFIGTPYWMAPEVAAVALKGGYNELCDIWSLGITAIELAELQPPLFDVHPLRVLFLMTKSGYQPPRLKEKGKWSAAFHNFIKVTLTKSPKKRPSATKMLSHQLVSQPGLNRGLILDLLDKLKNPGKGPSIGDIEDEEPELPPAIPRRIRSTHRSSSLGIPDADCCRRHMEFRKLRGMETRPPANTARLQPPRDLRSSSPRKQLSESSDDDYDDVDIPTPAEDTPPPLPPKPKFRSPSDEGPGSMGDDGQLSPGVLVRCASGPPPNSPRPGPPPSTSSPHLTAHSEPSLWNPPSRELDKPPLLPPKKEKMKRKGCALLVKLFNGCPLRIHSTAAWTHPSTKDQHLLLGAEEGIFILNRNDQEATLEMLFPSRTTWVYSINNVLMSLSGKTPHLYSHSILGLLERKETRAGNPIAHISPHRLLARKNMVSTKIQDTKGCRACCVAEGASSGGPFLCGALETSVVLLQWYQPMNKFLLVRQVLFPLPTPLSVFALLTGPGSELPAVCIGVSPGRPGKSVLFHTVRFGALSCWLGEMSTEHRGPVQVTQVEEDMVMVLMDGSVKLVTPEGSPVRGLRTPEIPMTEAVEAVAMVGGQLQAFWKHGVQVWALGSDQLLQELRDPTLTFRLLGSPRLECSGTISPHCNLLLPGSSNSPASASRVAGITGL
Procedure: as §1

IKKe, TBK1 = settings: 1 μM, 90 minutes, BCWM.1 cells
Procedure: as §1

IRE1 = IRE1 (Homo sapiens (Human), UniProt O75460); settings: 1 μM, 90 minutes, BCWM.1 cells
Procedure: as §1

LRRK2 = LRRK2 (Homo sapiens (Human), UniProt Q5S007); settings: 1 μM, 90 minutes, BCWM.1 cells
Procedure: as §1

LYN = LYN (Homo sapiens (Human), UniProt P07948); settings: 1 μM, 90 minutes, BCWM.1 cells
LYN, sequence (P07948 whole entry): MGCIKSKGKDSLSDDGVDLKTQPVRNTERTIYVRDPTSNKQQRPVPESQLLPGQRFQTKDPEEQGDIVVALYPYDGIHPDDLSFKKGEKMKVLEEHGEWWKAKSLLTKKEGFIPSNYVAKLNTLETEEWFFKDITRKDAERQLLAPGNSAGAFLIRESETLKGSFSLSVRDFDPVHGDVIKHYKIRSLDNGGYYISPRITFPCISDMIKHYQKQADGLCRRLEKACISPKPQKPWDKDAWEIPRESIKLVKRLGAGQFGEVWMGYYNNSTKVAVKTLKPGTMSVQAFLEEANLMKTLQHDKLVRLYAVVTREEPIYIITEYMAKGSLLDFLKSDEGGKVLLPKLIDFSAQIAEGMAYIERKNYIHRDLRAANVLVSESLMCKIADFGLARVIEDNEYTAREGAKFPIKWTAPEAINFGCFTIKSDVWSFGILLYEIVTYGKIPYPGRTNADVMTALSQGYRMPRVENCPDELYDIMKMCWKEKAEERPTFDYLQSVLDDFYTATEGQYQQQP
Procedure: as §1

MAP2K6 = MAP2K6 (Homo sapiens (Human), UniProt P52564); settings: 1 μM, 90 minutes, BCWM.1 cells
MAP2K6, sequence (P52564 whole entry): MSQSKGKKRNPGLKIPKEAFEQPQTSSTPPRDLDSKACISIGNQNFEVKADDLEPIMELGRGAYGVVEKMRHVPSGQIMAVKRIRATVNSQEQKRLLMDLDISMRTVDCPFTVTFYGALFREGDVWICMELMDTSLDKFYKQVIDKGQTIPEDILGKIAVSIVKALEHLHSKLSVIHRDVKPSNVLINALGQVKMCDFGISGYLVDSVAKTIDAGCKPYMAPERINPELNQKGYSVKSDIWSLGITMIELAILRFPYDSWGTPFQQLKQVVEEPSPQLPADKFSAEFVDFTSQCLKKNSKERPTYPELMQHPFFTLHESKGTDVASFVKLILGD
Procedure: as §1

MAP3K15, MAP3K5, MAP3K6 = settings: 1 μM, 90 minutes, BCWM.1 cells
Procedure: as §1

MELK = MELK (Homo sapiens (Human), UniProt Q14680); settings: 1 μM, 90 minutes, BCWM.1 cells
Procedure: as §1

MLK3 = MLK3 (Homo sapiens (Human), UniProt Q16584); settings: 1 μM, 90 minutes, BCWM.1 cells
Procedure: as §1

MSK1, MSK2 domain1 = settings: 1 μM, 90 minutes, BCWM.1 cells
Procedure: as §1

NEK2 = NEK2 (Homo sapiens (Human), UniProt P51955); settings: 1 μM, 90 minutes, BCWM.1 cells
Procedure: as §1

NEK7 = NEK7 (Homo sapiens (Human), UniProt Q8TDX7); settings: 1 μM, 90 minutes, BCWM.1 cells
Procedure: as §1

PAN3 = PAN3 (Homo sapiens (Human), UniProt Q58A45); settings: 1 μM, 90 minutes, BCWM.1 cells
Procedure: as §1

PI4KA, PI4KAP2 = settings: 1 μM, 90 minutes, BCWM.1 cells
Procedure: as §1

PIK3CG = PIK3CG (Homo sapiens (Human), UniProt P48736); settings: 1 μM, 90 minutes, BCWM.1 cells
PIK3CG, sequence (P48736 whole entry): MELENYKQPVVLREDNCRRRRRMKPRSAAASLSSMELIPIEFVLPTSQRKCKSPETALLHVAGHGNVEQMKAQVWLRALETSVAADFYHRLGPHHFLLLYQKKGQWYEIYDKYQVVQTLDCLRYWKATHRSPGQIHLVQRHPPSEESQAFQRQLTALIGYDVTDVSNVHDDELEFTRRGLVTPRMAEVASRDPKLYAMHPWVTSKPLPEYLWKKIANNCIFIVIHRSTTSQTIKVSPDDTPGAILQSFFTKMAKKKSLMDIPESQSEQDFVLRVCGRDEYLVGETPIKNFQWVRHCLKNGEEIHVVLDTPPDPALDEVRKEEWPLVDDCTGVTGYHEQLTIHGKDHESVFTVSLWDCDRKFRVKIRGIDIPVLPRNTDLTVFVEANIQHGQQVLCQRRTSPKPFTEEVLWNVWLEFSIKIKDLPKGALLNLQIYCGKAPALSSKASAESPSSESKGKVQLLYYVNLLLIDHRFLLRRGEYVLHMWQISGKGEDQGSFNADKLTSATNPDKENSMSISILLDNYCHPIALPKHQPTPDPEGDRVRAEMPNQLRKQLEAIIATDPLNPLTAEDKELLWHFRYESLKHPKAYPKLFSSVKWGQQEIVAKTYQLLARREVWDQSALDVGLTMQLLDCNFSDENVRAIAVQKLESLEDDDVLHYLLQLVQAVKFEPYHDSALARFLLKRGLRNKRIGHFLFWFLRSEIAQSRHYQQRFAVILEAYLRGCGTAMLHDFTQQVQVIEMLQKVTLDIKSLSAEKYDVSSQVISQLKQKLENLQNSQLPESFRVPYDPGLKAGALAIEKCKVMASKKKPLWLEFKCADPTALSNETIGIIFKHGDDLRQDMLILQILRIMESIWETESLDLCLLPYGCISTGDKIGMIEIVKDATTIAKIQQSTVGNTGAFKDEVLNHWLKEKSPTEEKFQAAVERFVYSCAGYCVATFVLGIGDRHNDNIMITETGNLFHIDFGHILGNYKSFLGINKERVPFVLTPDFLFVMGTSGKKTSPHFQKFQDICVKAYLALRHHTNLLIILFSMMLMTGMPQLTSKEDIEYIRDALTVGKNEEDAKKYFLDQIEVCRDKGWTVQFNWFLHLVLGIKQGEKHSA
Procedure: as §1

RSK1 domain2 = RSK1 domain2 (Homo sapiens (Human), UniProt Q15418); settings: 1 μM, 90 minutes, BCWM.1 cells
Procedure: as §1

RSK1, RSK2, RSK3 domain1 = settings: 1 μM, 90 minutes, BCWM.1 cells
Procedure: as §1

SNRK = SNRK (Homo sapiens (Human), UniProt Q9NRH2); settings: 1 μM, 90 minutes, BCWM.1 cells
SNRK, sequence (Q9NRH2 whole entry): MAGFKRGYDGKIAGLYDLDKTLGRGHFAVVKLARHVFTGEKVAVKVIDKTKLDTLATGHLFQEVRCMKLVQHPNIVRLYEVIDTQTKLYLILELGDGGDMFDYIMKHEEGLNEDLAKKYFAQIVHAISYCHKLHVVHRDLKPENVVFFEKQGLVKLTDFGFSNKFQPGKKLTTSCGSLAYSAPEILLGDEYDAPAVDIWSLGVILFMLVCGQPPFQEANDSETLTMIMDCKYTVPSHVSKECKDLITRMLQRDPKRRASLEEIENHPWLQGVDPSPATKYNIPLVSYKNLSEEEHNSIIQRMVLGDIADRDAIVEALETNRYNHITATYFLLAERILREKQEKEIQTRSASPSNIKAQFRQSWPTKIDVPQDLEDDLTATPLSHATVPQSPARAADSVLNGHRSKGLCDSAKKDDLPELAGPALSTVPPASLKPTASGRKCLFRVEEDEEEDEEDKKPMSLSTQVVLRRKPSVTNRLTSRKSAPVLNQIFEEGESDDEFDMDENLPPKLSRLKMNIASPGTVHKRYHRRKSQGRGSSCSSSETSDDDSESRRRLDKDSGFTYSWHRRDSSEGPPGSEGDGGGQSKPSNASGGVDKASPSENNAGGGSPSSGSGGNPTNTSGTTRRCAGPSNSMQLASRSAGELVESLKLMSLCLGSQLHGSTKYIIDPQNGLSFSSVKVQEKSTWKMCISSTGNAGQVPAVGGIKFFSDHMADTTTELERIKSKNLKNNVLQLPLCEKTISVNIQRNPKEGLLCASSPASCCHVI
Procedure: as §1

SRC = SRC (Homo sapiens (Human), UniProt P12931); settings: 1 μM, 90 minutes, BCWM.1 cells
Procedure: as §1

SRPK1, SRPK2 = settings: 1 μM, 90 minutes, BCWM.1 cells
Procedure: as §1

TAO2 = TAO2 (Homo sapiens (Human), UniProt Q9UL54); settings: 1 μM, 90 minutes, BCWM.1 cells
Procedure: as §1

TYK2 domain2 = TYK2 domain2 (Homo sapiens (Human), UniProt P29597); settings: 1 μM, 90 minutes, BCWM.1 cells
Procedure: as §1

Wnk1, Wnk2 = settings: 1 μM, 90 minutes, BCWM.1 cells
Procedure: as §1

eEF2K = eEF2K (Homo sapiens (Human), UniProt O00418); settings: 1 μM, 90 minutes, BCWM.1 cells
Procedure: as §1

p38d, p38g = settings: 1 μM, 90 minutes, BCWM.1 cells
Procedure: as §1

p70S6Kb = p70S6Kb (Homo sapiens (Human), UniProt Q9UBS0); settings: 1 μM, 90 minutes, BCWM.1 cells
p70S6Kb, sequence (Q9UBS0 whole entry): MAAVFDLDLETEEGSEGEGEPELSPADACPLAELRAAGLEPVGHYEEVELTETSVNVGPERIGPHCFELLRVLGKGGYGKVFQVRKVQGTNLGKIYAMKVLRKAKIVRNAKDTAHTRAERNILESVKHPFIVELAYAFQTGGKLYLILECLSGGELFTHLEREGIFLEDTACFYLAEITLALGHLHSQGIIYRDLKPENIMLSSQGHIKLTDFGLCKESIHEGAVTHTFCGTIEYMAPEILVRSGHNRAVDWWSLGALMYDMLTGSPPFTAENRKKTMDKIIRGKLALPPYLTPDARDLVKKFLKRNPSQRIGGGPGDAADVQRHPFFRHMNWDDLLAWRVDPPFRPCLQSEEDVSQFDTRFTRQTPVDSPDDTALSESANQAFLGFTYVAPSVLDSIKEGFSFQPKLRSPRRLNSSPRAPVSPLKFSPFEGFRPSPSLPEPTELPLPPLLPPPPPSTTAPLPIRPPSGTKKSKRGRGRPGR
Procedure: as §1

Structure (SMILES): C=CC(=O)N1CC[C@@H](Nc2nccc(Nc3ncc(C(=O)Nc4c(C)cccc4C)s3)n2)C1 [Example I-4]
- % change of MS signal compared to control sample (AMPKa1, AMPKa2): −40.3%
- % change of MS signal compared to control sample (AurA, AurB, AurC): 2.3%
- % change of MS signal compared to control sample (AurB): −10.1%
- % change of MS signal compared to control sample (BLK): >95%
- % change of MS signal compared to control sample (CASK): 23.2%
- % change of MS signal compared to control sample (CDK4): 6.8%
- % change of MS signal compared to control sample (CLK3): −1.3%
- % change of MS signal compared to control sample (CaMK1d): −12.5% and −4.0%
- % change of MS signal compared to control sample [1]: 10.0%
- % change of MS signal compared to control sample (CaMK2d): −8.5%
- % change of MS signal compared to control sample (CaMK2g): −19.8%
- % change of MS signal compared to control sample (Erk2): −3.2%
- % change of MS signal compared to control sample (FES): −15.6%
- % change of MS signal compared to control sample (FRK): 87.5%
- % change of MS signal compared to control sample (GSK3B): 0.7%
- % change of MS signal compared to control sample (HPK1): 26.6%
- % change of MS signal compared to control sample (IKKe, TBK1): −38.7%
- % change of MS signal compared to control sample (IRE1): −44.3%
- % change of MS signal compared to control sample (LRRK2): −5.7%
- % change of MS signal compared to control sample (LYN): >97% and >90%
- % change of MS signal compared to control sample (MAP2K6): −18.0% and −10.7%
- % change of MS signal compared to control sample (MAP3K15, MAP3K5, MAP3K6): 2.8%
- % change of MS signal compared to control sample (MELK): −11.7%
- % change of MS signal compared to control sample (MLK3): −27.2%
- % change of MS signal compared to control sample (MSK1, MSK2 domain1): −28.9%
- % change of MS signal compared to control sample (NEK2): 22.3%
- % change of MS signal compared to control sample (NEK7): −7.7%
- % change of MS signal compared to control sample (PAN3): −29.0%
- % change of MS signal compared to control sample (PI4KA, PI4KAP2): −37.7%
- % change of MS signal compared to control sample (PIK3CG): −46.3%
- % change of MS signal compared to control sample (RSK1 domain2): 12.5%
- % change of MS signal compared to control sample (RSK1, RSK2, RSK3 domain1): −44.0%
- % change of MS signal compared to control sample (SNRK): 35.3% and 61.9%
- % change of MS signal compared to control sample (SRC): >90%
- % change of MS signal compared to control sample (SRPK1, SRPK2): −14.7%
- % change of MS signal compared to control sample (TAO2): −7.0%
- % change of MS signal compared to control sample (TYK2 domain2): −3.8%
- % change of MS signal compared to control sample (Wnk1, Wnk2): 7.8%
- % change of MS signal compared to control sample (eEF2K): 0.3%
- % change of MS signal compared to control sample (p38d, p38g): −2.7%
- % change of MS signal compared to control sample (p70S6Kb): −72.4%

Structure (SMILES): C=CC(=O)N1CCCCC(Nc2nccc(Nc3ncc(C(=O)Nc4c(C)cccc4C)s3)n2)C1 (stereo not shown) [Example I-7]
- % change of MS signal compared to control sample (AMPKa1, AMPKa2): −20.7% and −22.3%
- % change of MS signal compared to control sample (AurA, AurB, AurC): 0.4%
- % change of MS signal compared to control sample (AurB): −6.1%
- % change of MS signal compared to control sample (BLK): >95%
- % change of MS signal compared to control sample (CASK): 37.7%
- % change of MS signal compared to control sample (CDK4): 16.7%
- % change of MS signal compared to control sample (CLK3): −15.7%
- % change of MS signal compared to control sample (CaMK1d): −19.1% and −16.0%
- % change of MS signal compared to control sample [1]: 7.4%
- % change of MS signal compared to control sample (CaMK2d): −22.5%
- % change of MS signal compared to control sample (CaMK2g): −12.8%
- % change of MS signal compared to control sample (Erk2): −4.7%
- % change of MS signal compared to control sample (FES): −20.9%
- % change of MS signal compared to control sample (FRK): 93.3%
- % change of MS signal compared to control sample (GSK3B): −1.9%
- % change of MS signal compared to control sample (HPK1): 23.4% and 19.8%
- % change of MS signal compared to control sample (IKKe, TBK1): −10.7%
- % change of MS signal compared to control sample (IRE1): −15.7%
- % change of MS signal compared to control sample (LRRK2): −9.6%
- % change of MS signal compared to control sample (LYN): >97% and >90%
- % change of MS signal compared to control sample (MAP2K6): 5.9% and 2.5%
- % change of MS signal compared to control sample (MAP3K15, MAP3K5, MAP3K6): 4.0%
- % change of MS signal compared to control sample (MELK): −11.0%
- % change of MS signal compared to control sample (MLK3): −4.6%
- % change of MS signal compared to control sample (MSK1, MSK2 domain1): −40.4%
- % change of MS signal compared to control sample (NEK2): 8.5%
- % change of MS signal compared to control sample (NEK7): 10.0%
- % change of MS signal compared to control sample (PAN3): −0.2%
- % change of MS signal compared to control sample (PI4KA, PI4KAP2): −17.4%
- % change of MS signal compared to control sample (PIK3CG): −51.9%
- % change of MS signal compared to control sample (RSK1 domain2): 4.9%
- % change of MS signal compared to control sample (RSK1, RSK2, RSK3 domain1): −58.3%
- % change of MS signal compared to control sample (SNRK): 40.7% and 58.7%
- % change of MS signal compared to control sample (SRC): >90%
- % change of MS signal compared to control sample (SRPK1, SRPK2): 17.3%
- % change of MS signal compared to control sample (TAO2): −18.0%
- % change of MS signal compared to control sample (TYK2 domain2): −46.4%
- % change of MS signal compared to control sample (Wnk1, Wnk2): −8.6%
- % change of MS signal compared to control sample (eEF2K): 4.9%
- % change of MS signal compared to control sample (p38d, p38g): 1.7%
- % change of MS signal compared to control sample (p70S6Kb): −42.7%
